Data reported in PubChem BioAssay (NCI).
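1) Cells in 96-well plates. 2) Compound, 48 h, 5 concentrations. 3) Linear interpolation between surrounding doses. 4) Unreached endpoint = highest concentration. TGI: total growth inhibition.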

Key:
Assay in all cases: NCI tumour cell line growth inhibition, 48 h
[1] = tested on: NCI-H23 lung
[2] = tested on: UACC-62 melanoma
[3] = tested on: SK-MEL-5 melanoma
[4] = tested on: SNB-78 CNS
[5] = tested on: HOP-92 NSCLC
[6] = tested on: 786-0 renal
[7] = tested on: SN12C renal
[8] = tested on: DLD-1 colon
[9] = tested on: SF-268 CNS
[10] = tested on: RXF 393 renal
[11] = tested on: KM20L2 colon
[12] = tested on: HOP-62 NSCLC
[13] = tested on: IGROV1 ovarian
[14] = tested on: MALME-3M melanoma
[15] = tested on: NCI-H522 lung
[16] = tested on: LOX IMVI melanoma
[17] = tested on: A498 renal
[18] = tested on: SK-MEL-2 melanoma
[19] = tested on: SK-OV-3 ovarian
[20] = tested on: HL-60(TB) leukemia
[21] = tested on: A549 NSCLC
[22] = tested on: NCI-H226 lung
[23] = tested on: RPMI-8226 leukemia
[24] = tested on: HCC-2998 colon
[25] = tested on: M19-MEL melanoma
[26] = tested on: DMS 273 small cell lung
[27] = tested on: UO-31 renal
[28] = tested on: HCT-15 colon
[29] = tested on: M14 melanoma
[30] = tested on: K-562 leukemia
[31] = tested on: ACHN renal
[32] = tested on: SF-539 CNS
[33] = tested on: OVCAR-4 ovarian
[34] = tested on: NCI-H460 lung
[35] = tested on: CCRF-CEM leukemia
[36] = tested on: EKVX NSCLC
[37] = tested on: XF 498 CNS
[38] = tested on: OVCAR-8 ovarian
[39] = tested on: OVCAR-5 ovarian
[40] = tested on: SK-MEL-28 melanoma
[41] = tested on: UACC-257 melanoma
[42] = tested on: COLO 205 colon
[43] = tested on: DMS 114 small cell lung
[44] = tested on: TK-10 renal
[45] = tested on: MOLT-4 leukemia
[46] = tested on: SF-295 CNS
[47] = tested on: SW-620 colon
[48] = tested on: KM12 colon
[49] = tested on: SNB-75 CNS
[50] = tested on: LXFL 529 NSCLC
[51] = tested on: SNB-19 CNS
[52] = tested on: HT29 colon
[53] = tested on: CAKI-1 renal
[54] = tested on: OVCAR-3 ovarian
[55] = tested on: U251 CNS
[56] = tested on: HCT-116 colon
[57] = tested on: HOP-18 NSCLC
[58] = tested on: MDA-MB-231 breast
[59] = tested on: HS 578T breast
[60] = tested on: BT-549 breast
[61] = tested on: SR leukemia
[62] = tested on: MDA-N
[63] = tested on: MCF7 breast
[64] = tested on: MDA-MB-435
[65] = tested on: DU-145 prostate
[66] = tested on: T-47D breast
[67] = tested on: PC-3 prostate
[68] = tested on: NCI/ADR-RES ovarian

ClC(Cl)=C(Cl)C1(Cl)CC1COCc1ccccc1 (centres undefined)
TGI [1]: > 100 µM
TGI [2]: 69.5 µM
TGI [3]: 31.8 µM
TGI [4]: 60.6 µM
TGI [5]: 42.8 µM
TGI [6]: > 100 µM
TGI [7]: > 100 µM
TGI [8]: > 100 µM
TGI [9]: > 100 µM
TGI [10]: 59.6 µM
TGI [11]: > 100 µM
TGI [12]: 79.3 µM
TGI [13]: > 100 µM
TGI [14]: 43.7 µM
TGI [15]: 44.2 µM
TGI [16]: 54.8 µM
TGI [17]: > 100 µM
TGI [18]: 36.7 µM
TGI [19]: > 100 µM
TGI [20]: 41.9 µM
TGI [21]: > 100 µM
TGI [22]: 95.6 µM
TGI [23]: 44.2 µM
TGI [24]: 81.2 µM
TGI [25]: 73.6 µM
TGI [26]: > 100 µM
TGI [27]: 74.1 µM
TGI [28]: > 100 µM
TGI [29]: > 100 µM
TGI [30]: > 100 µM
TGI [31]: > 100 µM
TGI [32]: > 100 µM
TGI [33]: > 100 µM
TGI [34]: > 100 µM
TGI [35]: 49 µM
TGI [36]: > 100 µM
TGI [37]: 73.6 µM
TGI [38]: > 100 µM
TGI [39]: > 100 µM
TGI [40]: > 100 µM
TGI [41]: 97.2 µM
TGI [42]: 61.1 µM
TGI [43]: 59.6 µM
TGI [44]: > 100 µM
TGI [45]: 55.1 µM
TGI [46]: 96.2 µM
TGI [47]: > 100 µM
TGI [48]: > 100 µM
TGI [49]: > 100 µM
TGI [50]: > 100 µM
TGI [51]: > 100 µM
TGI [52]: 86.3 µM
TGI [53]: > 100 µM
TGI [54]: 68.2 µM

COc1cc2c(cc1OC)C(C(=O)O)C(c1ccccc1)N(C)C2=O (centres undefined)
TGI [1]: > 100 µM
TGI [2]: > 100 µM
TGI [3]: > 100 µM
TGI [4]: > 100 µM
TGI [6]: > 100 µM
TGI [7]: > 100 µM
TGI [8]: > 100 µM
TGI [9]: > 100 µM
TGI [11]: > 100 µM
TGI [12]: > 100 µM
TGI [55]: > 100 µM
TGI [13]: > 100 µM
TGI [14]: > 100 µM
TGI [15]: > 100 µM
TGI [17]: > 100 µM
TGI [18]: > 100 µM
TGI [19]: > 100 µM
TGI [21]: > 100 µM
TGI [23]: > 100 µM
TGI [24]: > 100 µM
TGI [25]: > 100 µM
TGI [27]: > 100 µM
TGI [29]: > 100 µM
TGI [30]: > 100 µM
TGI [31]: > 100 µM
TGI [32]: > 100 µM
TGI [56]: > 100 µM
TGI [33]: > 100 µM
TGI [34]: > 100 µM
TGI [35]: > 100 µM
TGI [36]: > 100 µM
TGI [37]: > 100 µM
TGI [38]: > 100 µM
TGI [39]: > 100 µM
TGI [40]: > 100 µM
TGI [41]: > 100 µM
TGI [42]: > 100 µM
TGI [43]: > 100 µM
TGI [44]: > 100 µM
TGI [45]: > 100 µM
TGI [46]: > 100 µM
TGI [47]: > 100 µM
TGI [48]: > 100 µM
TGI [49]: > 100 µM
TGI [50]: > 100 µM
TGI [51]: > 100 µM
TGI [52]: > 100 µM
TGI [53]: > 100 µM
TGI [57]: > 100 µM
TGI [54]: > 100 µM

Cc1cc(N(CCC#N)S(=O)(=O)c2ccccc2)ccc1/C=C1\N=C(c2ccc(Cl)cc2)OC1=O
TGI [1]: > 100 µM
TGI [2]: > 100 µM
TGI [3]: > 100 µM
TGI [4]: > 100 µM
TGI [5]: > 100 µM
TGI [6]: > 100 µM
TGI [7]: > 100 µM
TGI [8]: > 100 µM
TGI [9]: > 100 µM
TGI [10]: > 100 µM
TGI [11]: > 100 µM
TGI [55]: > 100 µM
TGI [13]: > 100 µM
TGI [14]: > 100 µM
TGI [16]: > 100 µM
TGI [17]: > 100 µM
TGI [18]: > 100 µM
TGI [20]: > 100 µM
TGI [21]: > 100 µM
TGI [22]: > 100 µM
TGI [23]: > 100 µM
TGI [24]: > 100 µM
TGI [26]: > 100 µM
TGI [27]: > 100 µM
TGI [28]: > 100 µM
TGI [29]: > 100 µM
TGI [30]: > 100 µM
TGI [31]: > 100 µM
TGI [32]: > 100 µM
TGI [56]: > 100 µM
TGI [33]: > 100 µM
TGI [34]: > 100 µM
TGI [35]: > 100 µM
TGI [36]: > 100 µM
TGI [37]: > 100 µM
TGI [38]: > 100 µM
TGI [39]: > 100 µM
TGI [40]: > 100 µM
TGI [41]: > 100 µM
TGI [42]: > 100 µM
TGI [43]: > 100 µM
TGI [45]: > 100 µM
TGI [46]: > 100 µM
TGI [47]: > 100 µM
TGI [48]: > 100 µM
TGI [50]: > 100 µM
TGI [51]: > 100 µM
TGI [52]: > 100 µM
TGI [53]: > 100 µM
TGI [54]: > 100 µM

COc1cc(/C=C/c2ccc(C)cc2)cc(OC)c1OC
TGI [1]: 9.16 µM
TGI [2]: 15.6 µM
TGI [3]: 13.3 µM
TGI [4]: 9.81 µM
TGI [58]: > 100 µM
TGI [5]: 25.5 µM
TGI [6]: 36.6 µM
TGI [59]: 9.71 µM
TGI [7]: 30.1 µM
TGI [8]: 20.7 µM
TGI [9]: 11.2 µM
TGI [60]: 19 µM
TGI [11]: 4.69 µM
TGI [12]: 16.3 µM
TGI [55]: 23.9 µM
TGI [13]: > 91 µM
TGI [14]: 10.5 µM
TGI [15]: 5.7 µM
TGI [61]: 16.6 µM
TGI [16]: 13.5 µM
TGI [62]: 2890 nM
TGI [18]: > 31.6 µM
TGI [19]: 39 µM
TGI [20]: 21.9 µM
TGI [21]: 70.1 µM
TGI [22]: 11.4 µM
TGI [63]: 45.3 µM
TGI [23]: 43.7 µM
TGI [25]: > 88.9 µM
TGI [26]: 17.6 µM
TGI [27]: 23.6 µM
TGI [28]: 20.1 µM
TGI [29]: 15.3 µM
TGI [30]: > 100 µM
TGI [31]: 35.5 µM
TGI [32]: 7.07 µM
TGI [64]: 3.14 µM
TGI [56]: 14.2 µM
TGI [33]: 44.7 µM
TGI [34]: > 32.8 µM
TGI [35]: 25.4 µM
TGI [36]: > 100 µM
TGI [37]: 13.9 µM
TGI [38]: 15.9 µM
TGI [39]: 21.9 µM
TGI [40]: 17.7 µM
TGI [41]: 31.5 µM
TGI [42]: 13.2 µM
TGI [65]: 13.7 µM
TGI [43]: > 100 µM
TGI [44]: 18 µM
TGI [45]: 25.6 µM
TGI [46]: 6.53 µM
TGI [47]: > 68.6 µM
TGI [48]: 18.1 µM
TGI [49]: 8.05 µM
TGI [66]: 20.6 µM
TGI [50]: > 48.8 µM
TGI [51]: 38.2 µM
TGI [67]: 11.4 µM
TGI [52]: 9.45 µM
TGI [53]: > 55.2 µM
TGI [57]: > 100 µM
TGI [54]: 6.93 µM
TGI [68]: 4.9 µM
